Read-outs that look alike come from different tables or passages of the source.
Key:
ROCK1 = biological target: T1, ROCK1 (Homo sapiens, UniProt Q13464); test: Rho kinase inhibition assay (IMAP fluorescence polarization), ROCK1; format: biochemical;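 note: kinase reaction run 60 min at room temperature, then phosphorylated substrate captured on IMAP beads for 30 min, with fluorescence polarization read in mP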
T1 construct: purchased Upstate/Chemicon 14-601
Description: (§1) Following the pre-incubation, 10 μM ATP was added to initiate the reaction. After 60 minutes at room temperature, Molecular Devices IMAP™ binding solution was added to bind phosphorylated substrate. After 30 minutes of incubation in the presence of the IMAP™ beads, the fluorescence polarization was read and the ratio was reported as mP. IC50 values for compounds and EC50 values for ATP were calculated using the Prism software from Graphpad.

ROCK2 = biological target: T2, ROCK2 (Homo sapiens, UniProt O75116); test: Rho kinase inhibition assay (IMAP fluorescence polarization), ROCK2; format: biochemical;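 note: kinase reaction started with 10 µM ATP and run 60 min at room temperature, then phosphorylated substrate captured on IMAP beads for 30 min and fluorescence polarization read in mP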
T2 construct: purchased Upstate/Chemicon 14-451
T2 sequence (O75116 11-552 limits assumed): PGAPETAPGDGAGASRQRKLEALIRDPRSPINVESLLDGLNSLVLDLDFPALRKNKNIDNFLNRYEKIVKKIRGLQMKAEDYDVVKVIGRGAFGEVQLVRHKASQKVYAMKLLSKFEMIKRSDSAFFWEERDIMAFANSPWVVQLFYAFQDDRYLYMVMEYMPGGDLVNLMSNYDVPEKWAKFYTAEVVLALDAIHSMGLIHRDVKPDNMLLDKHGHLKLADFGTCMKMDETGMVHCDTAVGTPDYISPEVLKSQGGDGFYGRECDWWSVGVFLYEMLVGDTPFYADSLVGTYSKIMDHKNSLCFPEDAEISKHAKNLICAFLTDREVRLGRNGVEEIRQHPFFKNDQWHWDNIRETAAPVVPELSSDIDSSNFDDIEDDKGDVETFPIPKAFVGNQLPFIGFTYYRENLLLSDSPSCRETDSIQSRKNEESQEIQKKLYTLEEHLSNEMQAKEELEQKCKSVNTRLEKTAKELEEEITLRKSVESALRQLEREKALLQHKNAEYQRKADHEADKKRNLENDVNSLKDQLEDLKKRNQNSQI
Description: as §1

[1] = test system: ova-sensitized, ova-challenged mice; test: Prevention of airway hyperreactivity (Penh, methacholine) in mouse ovalbumin sensitization model; format: in vivo
LPS-challenged mice = test: LPS-induced neutrophilia and cytokine production assay; format: in vivo, mouse; conditions: intratracheal administration; FIG. 11B
Description: Male BALB/c mice, approximately 19 to 21 grams, were ordered from Charles River Laboratories (Raleigh, N.C.). All animals were challenged with aerosolized LPS (10 μg/ml) for 25 minutes on study day 0. LPS aerosol was generated using an Aerogen Aeroneb nebulizer and controller providing a flow of 400 μl/min and a particle size of 2-4 μm MMAD. Rolipram was administered i.p at 20 mg/kg. […] Four hours following LPS challenge, BALF was collected using a total of 3 ml of 0.9% sodium chloride containing 10% fetal calf serum. Total cell counts were determined using the Coulter Counter. For differential evaluations, BALF was centrifuged and cytospin slides prepared and stained with Hema3 stain. Manual leukocyte counts were then completed on 200 cells. The final concentration of individual leukocyte cell types per ml of BALF was determined by multiplication of the relative percentage of individual leukocytes with the total amount of cells/ml of BALF fluid. The concentration of IL-1β in the BALF samples was determined using commercially available Bio-plex kits (Bio-Rad). The analysis of cytokine levels was measured using the Bio-Plex 200 (Bio-Rad) system according to the manufacturer's instructions.

T1 sequence (Q13464 17-535 limits assumed): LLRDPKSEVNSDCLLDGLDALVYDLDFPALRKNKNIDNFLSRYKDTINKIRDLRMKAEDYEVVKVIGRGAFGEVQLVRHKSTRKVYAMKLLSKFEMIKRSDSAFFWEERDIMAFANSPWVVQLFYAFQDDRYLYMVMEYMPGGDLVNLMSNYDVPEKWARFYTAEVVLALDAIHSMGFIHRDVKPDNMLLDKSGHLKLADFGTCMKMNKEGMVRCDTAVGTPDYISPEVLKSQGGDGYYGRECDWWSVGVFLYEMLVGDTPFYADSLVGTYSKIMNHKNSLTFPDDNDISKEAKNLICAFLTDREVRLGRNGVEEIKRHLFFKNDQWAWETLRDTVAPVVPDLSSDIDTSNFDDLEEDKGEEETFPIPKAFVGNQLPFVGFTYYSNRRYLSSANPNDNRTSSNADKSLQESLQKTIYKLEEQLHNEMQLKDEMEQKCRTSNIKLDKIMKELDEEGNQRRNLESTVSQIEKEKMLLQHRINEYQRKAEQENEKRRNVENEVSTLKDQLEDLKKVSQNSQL

NC(=O)Cn1ccc2cc(CN3CC[C@@H](Nc4cccc5cnccc45)C3)ccc21 [Compound 2.059, (R)-2-(5-((3-(isoquinolin-5-ylamino)pyrrolidin-1-yl)methyl)-1H-indol-1-yl)acetamide]
Ki (ROCK1; Avg, 10 μM ATP): 3.9 nM | Ki (ROCK1; average Ki): 3.9 nM | Ki (ROCK2; 10 μM ATP, read-out: ROCK2 Ki, Avg): 2.7 nM | Ki (ROCK2; average Ki, read-out: ROCK2 Ki): 2.7 nM | log10AUC (Penh) ([1]; 0.5 μmol/kg/intratracheal, days 27 to 31): 1.9979 | airway hyperreactivity ([1]; intratracheal once a day during days 27 to 31): prevention of airway hyperreactivity | IL-1β levels in BALF from LPS-challenged mice (LPS-challenged mice): reduction
